In ChEMBL document CHEMBL1201862, “PubChem BioAssay data set” (2004):
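A five-concentration, 48-hour dose response in 96-well plates underlies each endpoint, interpolated linearly between surrounding concentrations. GI50: concentration for 50% inhibition of growth.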 Activity calls are given as the source filed them. No stated cut-off is given here; in the data, active = GI50 up to about 1.1 µM and inactive = higher.

How the values were obtained:
Assay in all cases: growth of human tumour cells (NCI), 48 h
T47D = test system: T47D
U-251 = test system: U-251
COLO 205 = test system: COLO 205
SR = test system: SR
SF-268 = test system: SF-268
UACC-62 = test system: UACC-62
OVCAR-3 = test system: OVCAR-3
ACHN = test system: ACHN
K562 = test system: K562
Malme-3M = test system: Malme-3M
HOP-62 = test system: HOP-62
MDA-MB-231 = test system: MDA-MB-231
UACC-257 = test system: UACC-257
MDA-N = test system: MDA-N
SNB-75 = test system: SNB-75
HL-60 = test system: HL-60
M14 = test system: M14
MDA-MB-435 = test system: MDA-MB-435
786-0 = test system: 786-0
DU-145 = test system: DU-145
SF-539 = test system: SF-539
A498 = test system: A498
NCI-H522 = test system: NCI-H522
SW-620 = test system: SW-620
OVCAR-5 = test system: OVCAR-5
LOX IMVI = test system: LOX IMVI
A549 = test system: A549
SNB-19 = test system: SNB-19
CAKI-1 = test system: CAKI-1
IGROV-1 = test system: IGROV-1
CCRF-CEM = test system: CCRF-CEM
RPMI-8226 = test system: RPMI-8226
SK-MEL-5 = test system: SK-MEL-5
SF-295 = test system: SF-295
OVCAR-4 = test system: OVCAR-4
HOP-92 = test system: HOP-92
HCC 2998 = test system: HCC 2998
NCI-H460 = test system: NCI-H460
HCT-15 = test system: HCT-15
MOLT-4 = test system: MOLT-4
NCI-H23 = test system: NCI-H23
SK-OV-3 = test system: SK-OV-3
KM12 = test system: KM12
EKVX = test system: EKVX
SK-MEL-2 = test system: SK-MEL-2
SN12C = test system: SN12C
RXF 393 = test system: RXF 393
MCF7 = test system: MCF7
HCT-116 = test system: HCT-116
TK-10 = test system: TK-10
NCI/ADR-RES = test system: NCI/ADR-RES
NCI-H226 = test system: NCI-H226
HT-29 = test system: HT-29
UO-31 = test system: UO-31
OVCAR-8 = test system: OVCAR-8
BT-549 = test system: BT-549
Hs-578T = test system: Hs-578T
SK-MEL-28 = test system: SK-MEL-28
PC-3 = test system: PC-3

Measured: GI50

c1ccc(-c2c[nH]c(SC(c3ccccc3)c3ccccc3)n2)cc1
13.3 µM: HCT-15
inactive: T47D 8.95 µM | U-251 15 µM | COLO 205 13 µM | SR 13.3 µM | SF-268 43.8 µM | UACC-62 14.2 µM | OVCAR-3 33.4 µM | ACHN 24.5 µM | K562 12.7 µM | Malme-3M 15 µM | HOP-62 29 µM | MDA-MB-231 58.6 µM | UACC-257 18 µM | MDA-N 20.7 µM | SNB-75 32.1 µM | HL-60 11.1 µM | M14 30.8 µM | MDA-MB-435 21.1 µM | 786-0 32.1 µM | DU-145 23.4 µM | SF-539 30.4 µM | A498 24.7 µM | NCI-H522 17.1 µM | SW-620 27.6 µM | OVCAR-5 55.7 µM | LOX IMVI 17.6 µM | A549 21.9 µM | SNB-19 38 µM | CAKI-1 13.8 µM | IGROV-1 19.2 µM | CCRF-CEM 19.3 µM | RPMI-8226 10.8 µM | SK-MEL-5 12.4 µM | SF-295 15.2 µM | OVCAR-4 23.4 µM | HOP-92 9.51 µM | HCC 2998 17 µM | NCI-H460 10.2 µM | MOLT-4 15.7 µM | NCI-H23 14.7 µM | SK-OV-3 46.9 µM | KM12 16.8 µM | EKVX 13.3 µM | SK-MEL-2 16.9 µM | SN12C 17.4 µM | RXF 393 15.8 µM | MCF7 20.3 µM | HCT-116 12.7 µM | TK-10 21.1 µM | NCI/ADR-RES 11.1 µM | NCI-H226 17.3 µM | HT-29 10.9 µM | UO-31 29.6 µM | OVCAR-8 19.6 µM | BT-549 25.1 µM | Hs-578T 33.3 µM | SK-MEL-28 33.7 µM | PC-3 22.1 µM

C=C(C)[C@@H]1CC[C@]2(C(=O)OC3OC(COC4OC(CO)C(OC5OC(C)C(O)C(O)C5O)C(O)C4O)C(O)C(O)C3O)CC[C@]3(C)[C@H](CC[C@@H]4[C@@]5(C)CC[C@H](O)[C@@](C)(CO)[C@@H]5CC[C@]43C)[C@@H]12 (stereo partly drawn)
active: SR 0.755 µM | K562 0.802 µM | HL-60 0.0986 µM | A549 0.986 µM | CCRF-CEM 0.043 µM | RPMI-8226 0.929 µM | MOLT-4 0.39 µM | NCI-H23 1.04 µM | KM12 0.625 µM
inactive: T47D 3.4 µM | U-251 1.64 µM | COLO 205 1.63 µM | SF-268 2.93 µM | UACC-62 1.99 µM | OVCAR-3 1.84 µM | ACHN 2 µM | Malme-3M 3.78 µM | HOP-62 3.61 µM | MDA-MB-231 3.56 µM | UACC-257 4.63 µM | MDA-N 4.58 µM | SNB-75 4.39 µM | M14 3.48 µM | MDA-MB-435 3.51 µM | 786-0 3.98 µM | DU-145 4.8 µM | SF-539 2.58 µM | A498 2.48 µM | NCI-H522 2.66 µM | SW-620 2.16 µM | OVCAR-5 6.81 µM | LOX IMVI 2.58 µM | SNB-19 2.72 µM | CAKI-1 3.4 µM | IGROV-1 2.74 µM | SK-MEL-5 2.84 µM | SF-295 1.27 µM | OVCAR-4 3.44 µM | HOP-92 3.1 µM | HCC 2998 2.56 µM | NCI-H460 1.37 µM | SK-OV-3 3.24 µM | EKVX 2.2 µM | SK-MEL-2 2.39 µM | SN12C 3.5 µM | RXF 393 5.06 µM | MCF7 3.02 µM | HCT-116 2.18 µM | TK-10 3.49 µM | NCI/ADR-RES 2.91 µM | NCI-H226 3.16 µM | HT-29 3.05 µM | UO-31 3.93 µM | OVCAR-8 3.97 µM | BT-549 3.06 µM | Hs-578T 3.64 µM | SK-MEL-28 5.79 µM | PC-3 2.6 µM
2.39 µM: HCT-15
